Drawing on PubChem BioAssay (NCI), this text covers TGI and GI50 for 16 molecules.

Test systems include COLO 205 colon; HOP-62 NSCLC; HT29 colon; MALME-3M melanoma; RPMI-8226 leukemia; SF-268 CNS; TK-10 renal; HS 578T breast; NCI/ADR-RES ovarian; PC-3 prostate; T-47D breast.
Common to all, as to experiment: NCI tumour cell line growth inhibition, 48 h

Structures are written as SMILES.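 All cell lines were grown in 96-well plates and treated with compound for 48 hours. GI50 is the concentration that inhibits growth by half. TGI: concentration producing complete growth inhibition.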 A value given as a limit tells only on which side of the number the result lay.

In the case of `C[C@H]1[C@H](C)CC[C@]2(C(=O)O)CCC3(COC(=O)/C=C/c4ccc(O)cc4)C(=CCC4[C@@]5(C)CC[C@H](O)C(C)(C)C5CC[C@]43C)[C@H]12` (stereo not given in full), the TGI in the experiment on COLO 205 colon was found to be 17.9 µM; in the experiment with HOP-62 NSCLC, 23 µM; in the experiment on HT29 colon it was 18.6 µM; in the experiment with MALME-3M melanoma, 37.2 µM; with RPMI-8226 leukemia, 49.8 µM; with SF-268 CNS, 22.5 µM. The same molecule came in with a TGI in the experiment with TK-10 renal of 22.3 µM.
Take `CCOC(=O)C(C(=O)OCC)S(C)(=O)=O`: the TGI in the experiment with COLO 205 colon, with HOP-62 NSCLC, in the experiment on HT29 colon, with MALME-3M melanoma, with RPMI-8226 leukemia and in the experiment with TK-10 renal was greater than 100 µM each time.
In the case of `Cn1cc(-c2csc(-c3cn(CCCN4CCCCC4)c4ccc(Br)cc34)n2)c2cccnc21`, the GI50 with HS 578T breast is 2.09 µM; in the experiment on MALME-3M melanoma, 1.58 µM; with NCI/ADR-RES ovarian, 1.92 µM; in the experiment with PC-3 prostate, 1.77 µM; with TK-10 renal, 1.69 µM. Further, the TGI in the experiment on HS 578T breast was 5.41 µM; with MALME-3M melanoma, 3.16 µM; with NCI/ADR-RES ovarian, 3.73 µM; with PC-3 prostate, 3.22 µM; in the experiment with TK-10 renal, 3.16 µM.
In the case of `CN(C)C1(N(C)C)Oc2c(c(=O)n(C)c(=O)n2C)C(c2ccc(F)cc2)C1(F)F` (stereo not given), the TGI in the experiment on COLO 205 colon, with HOP-62 NSCLC, in the experiment with NCI/ADR-RES ovarian, with PC-3 prostate, in the experiment on RPMI-8226 leukemia and in the experiment with SF-268 CNS was greater than 100 µM throughout. Further, the TGI with T-47D breast and with TK-10 renal was greater than 100 µM in each case.
Consider `CCCCCCc1cc2cc(-c3cn4ccccc4n3)c(=O)oc2cc1O`, for which the TGI was greater than 100 µM in the experiment with COLO 205 colon; 24.4 µM in the experiment on HOP-62 NSCLC; greater than 100 µM in the experiment on HT29 colon; 4.74 µM in the experiment with MALME-3M melanoma; 21.4 µM in the experiment with NCI/ADR-RES ovarian; 32.7 µM in the experiment on PC-3 prostate. The TGI in the experiment on RPMI-8226 leukemia is 18.4 µM; in the experiment with SF-268 CNS, 6.94 µM; with T-47D breast, 52 µM; in the experiment on TK-10 renal, 30.1 µM.
`CC(C)(Cl)C(Cl)CC/C(CBr)=C(\Cl)CBr` (stereo not given): the TGI worked out at 8.1 µM with COLO 205 colon; 4.91 µM in the experiment with HOP-62 NSCLC; 4.54 µM with HS 578T breast; 25 µM in the experiment on HT29 colon; 4.83 µM in the experiment with MALME-3M melanoma; 7.9 µM in the experiment with NCI/ADR-RES ovarian. Besides, the TGI with PC-3 prostate is 8.56 µM; with SF-268 CNS, 7.67 µM; with TK-10 renal it was 3.82 µM.
As for `[O-][N+]1=C(c2ccccc2)/C(=C2/C(c3ccccc3)=[N+]([O-])c3ccccc32)Cc2ccccc21`, the TGI was 34.7 µM in the experiment on COLO 205 colon; greater than 100 µM with HOP-62 NSCLC; 35.9 µM with HT29 colon; 40.8 µM with MALME-3M melanoma; 34.4 µM in the experiment on NCI/ADR-RES ovarian; 34.9 µM in the experiment with PC-3 prostate. Moreover, the results for the TGI in the experiment with RPMI-8226 leukemia, in the experiment on T-47D breast and in the experiment on TK-10 renal were 52 µM, 45.8 µM and 49.2 µM, respectively.
Consider `O=S1(=O)OCCOS(=O)(=O)C1(Br)Br`, for which the TGI in the experiment on COLO 205 colon, in the experiment on HOP-62 NSCLC, with HT29 colon, with MALME-3M melanoma, with RPMI-8226 leukemia and in the experiment with SF-268 CNS was greater than 100 µM throughout. Further, in the experiment on TK-10 renal, the TGI was greater than 100 µM.
Turning to `CC(Cn1c(=O)oc2ccccc21)N(C)C` (stereo not given), the TGI in the experiment on COLO 205 colon, in the experiment with HOP-62 NSCLC, with HS 578T breast, in the experiment with HT29 colon, with MALME-3M melanoma and in the experiment with NCI/ADR-RES ovarian was greater than 100 µM throughout. Besides, the TGI in the experiment on PC-3 prostate, in the experiment on RPMI-8226 leukemia, in the experiment with SF-268 CNS and with TK-10 renal was greater than 100 µM each time.
As for `O=C(O)C1Cc2[nH]c3ccccc3c2C2CCCC12` (stereo not given), the TGI in the experiment with COLO 205 colon, with MALME-3M melanoma, in the experiment with SF-268 CNS and in the experiment with TK-10 renal was greater than 100 µM in each case.
On to `CC(C)OP(=O)(OC(C)C)/C(=N/Nc1ccc([N+](=O)[O-])cc1)NNC(=O)c1ccccc1`, for which the TGI in the experiment with COLO 205 colon, with HOP-62 NSCLC, with MALME-3M melanoma, in the experiment on RPMI-8226 leukemia, in the experiment with SF-268 CNS and in the experiment on TK-10 renal was greater than 100 µM each time.
For the molecule `Cc1cc(N(CCC#N)CCC#N)ccc1/C=C(\N=[N+]=[N-])C(=O)NC(=O)COc1ccccc1`, the TGI with COLO 205 colon, in the experiment on HOP-62 NSCLC, in the experiment with HT29 colon, in the experiment on MALME-3M melanoma, in the experiment on RPMI-8226 leukemia and with SF-268 CNS was greater than 100 µM throughout. Further, the TGI with TK-10 renal was greater than 100 µM.
Regarding `COc1cc2cnc3c4cc(O)ccc4ccc3c2cc1OC`, the TGI in the experiment on COLO 205 colon is 59.8 µM; in the experiment on HOP-62 NSCLC it was greater than 100 µM; with HT29 colon, greater than 100 µM; in the experiment on MALME-3M melanoma it was greater than 100 µM; in the experiment on RPMI-8226 leukemia it was greater than 100 µM; in the experiment with SF-268 CNS, greater than 100 µM. Moreover, the TGI with TK-10 renal was greater than 100 µM.
Regarding `COc1ccccc1NC(=O)C(=O)C(c1cnc2ccc([N+](=O)[O-])cc2n1)[N+](=O)[O-]` (stereo not given), the TGI with COLO 205 colon, in the experiment with HOP-62 NSCLC, in the experiment on HT29 colon, with MALME-3M melanoma, in the experiment on RPMI-8226 leukemia and in the experiment on SF-268 CNS was greater than 100 µM each time. The TGI in the experiment on TK-10 renal is greater than 100 µM.
As to `CCCC1(N2C(=O)c3ccc4c5c(ccc(c35)C2=O)N(C2(CCC)CCCCC2)C4=O)CCCCC1`, the TGI with COLO 205 colon, in the experiment on HOP-62 NSCLC, in the experiment on HT29 colon, in the experiment on MALME-3M melanoma, with NCI/ADR-RES ovarian and in the experiment on PC-3 prostate was greater than 100 µM throughout. Besides, the TGI with RPMI-8226 leukemia, in the experiment with SF-268 CNS, in the experiment on T-47D breast and in the experiment on TK-10 renal was greater than 100 µM throughout.
With `CCOC(OCC)[C@@H]1C[C@@H]2N(O[C@H](OC3CCCC3(c3ccccc3)c3ccccc3)[C@H](OC(C)=O)[C@@]2(CC)Cc2ccc(OC)c(OC)c2)O1` (stereo not given in full), the TGI in the experiment with COLO 205 colon, in the experiment on HOP-62 NSCLC, in the experiment on HT29 colon, with NCI/ADR-RES ovarian, in the experiment on PC-3 prostate and in the experiment on SF-268 CNS was greater than 100 µM throughout. Also, the TGI in the experiment with T-47D breast and with TK-10 renal was greater than 100 µM throughout.
